# How the values were obtained:
# parental CHOK1 cells = assay: Flow cytometry binding to parental CHOK1 cells
# Source text: Scale is shown and yellow arrows correspond with each identified monomer. A schematic of the hexamer species is shown to the right, depicting dimerization of the Fc domain and trimerization of the CD40L domain. […] Recombinant hSIRPα-Fc, hCD40L-Fc, and hIgG1 were used as positive controls. […] In both panels, the CHOK1 Parental is on the left and the CHOK1/hCD47 is on the right. […] For both graphs, the CHOK1 Parental is on the bottom. […] In this figure, the control is the top curve, the SIRPα-Fc-CD40L is the middle curve, and the anti-CD47 is the bottom curve.
# The extracellular domain (ECD) of SIRPα and the ECD of CD40L were fused via an antibody Fc domain to generate SIRPαECD-Fc-CD40LECD chimeric proteins. When human proteins were used, the chimeric protein is referred to as hSIRPα-Fc-CD40L; when murine proteins were used, the chimeric protein is referred to as and mSIRPα-Fc-CD40L. […] The purified protein was then analyzed for the presence of each individual domain by Western blotting using anti-SIRPα, anti-Fc, and anti-CD40L antibodies (FIG. 3A, bottom). […] Next, binding affinities for SIRPα-Fc-CD40L to recombinant CD47, CD40, or Fc receptors were evaluated by surface plasmon resonance (SPR). […] A functional ELISA evaluated whether SIRPα-Fc-CD40L could outcompete a commercially available single-sided SIRPα-Fc control for binding to recombinant CD47 (FIG. 3H).
# [1] = test system: K562 (low EGFR-expressing CML cell line); assay: Macrophage engulfment of K562 cells; assay type: cell-based, human
# [2] = test system: A431 (high EGFR-expressing skin cancer cell line); assay: Macrophage engulfment of A431 cells; assay type: cell-based, human; details: combination with anti-EGFR antibody (cetuximab); vs low EGFR-expressing tumor cells
# splenic dendritic cells = assay: In vivo splenic dendritic cell activation; parameters: species or system mice; details: mouse
# Description: For each panel, the samples are (left to right): untreated, sheep RBCs, αCD47 (MIAP301), αSIRPα (P84), mSIRPα-Fc-CD40L, mSIRPα-Fc-CD40L (24 Hrs), and αCD47 (MIAP301) (24 hrs). FIG. 9B is a quantitation of in vivo dendritic cell activation corresponding to FIG. 9A. Shown is the absolute percent of CD4+ and CD8+ dendritic cells; also gated on CD11c and DC1R2. In FIG. 9B, for each panel, the samples are (left to right): untreated, sheep RBCs, αCD47 (MIAP301), αSIRPα (P84), SIRPα-Fc-CD40L (150 μg), SIRPα-Fc-CD40L (300 μg), SIRPα-Fc-CD40L (300 μg) (24 Hrs), and αCD47 (MIAP301) (24 hrs).
# An in vivo assay to examine SIRPα/CD47 function in mice was describe in Yi et al., “Splenic Dendritic Cells Survey Red Blood Cells for Missing Self-CD47 to Trigger Adaptive Immune Responses. Immunity. 2015; 43(4):764-75) (the contents of which is incorporated by reference in its entirety). This assay detects the activation status of splenic dendritic cells in response to SIRPα/CD47 inhibitors or to infused sheep red blood cells (RBC).
# After 6 or 24 hours, mice were euthanized and their spleens excised, dissociated, and assessed by flow cytometry for populations of activated CD4+ dendritic cells (DCs) (FIG. 9A, left panel) or CD8+ dendritic cells (FIG. 9A, right panel); both populations of dendritic cells were also positive for MHC II (I-Ab), CD11c, and DC1R2.
# [3] = test system: type I interferon regulatory genes INFα1 and IFNβ1; assay: Type I interferon response in Raji cell:macrophage co-cultures; assay type: cell-based, human
# Description: FIG. 8D: Macrophage:Toledo lymphoma co-cultures were harvested 2 hours into phagocytosis assays in the presence of rituximab ([…]), SIRPα-Fc-CD40L ([…]), or the combination of both agents. Macrophages were isolated by CD11b+ FACS, RNA was prepared, cDNA synthesized, and gene expression (IFNa1, IFNb1, CD80, and CD86) assessed by qRT-PCR. Fold change was calculated using DDCT and values obtained from the housekeeping gene ACTB, and the corresponding values from untreated samples. […] After 2 hours, co-cultures were isolated from tissue culture vessels and were stained with a fluorescently conjugated CD11b antibody to discriminate macrophages. Cells were then assessed by flow cytometry for the co-localization of fluorescent signal from both cells types. Identical assays were set up where macrophages were pre-incubated for 1 hour with 20 μg/mL of a commercially available Fc block cocktail or with 20 μg/mL of a CD40 blocking antibody or with 5 μg/mL of a calreticulin blocking peptide. FIG. 8G: RAW 264.7-Lucia ISG cells were cultured with A20 lymphoma cells in the presence of […] of mSIRPα-Fc-CD40L, recombinant Fc-mCD40L, mSIRPα-Fc, or their combination, 1 mg/mL anti-mCD20, or the combination of mSIRPα-Fc-CD40L and anti-mCD20. After 24-hours type I interferon induced luminescence was assessed using a luminometer. The maximum luminescence (RLU) from each experiment was set to 1, and all other samples were normalized accordingly. Values from repeat experiments are shown.
# [4] = test system: HCC1954 (high Her2-expressing breast cancer cell line); assay: Macrophage engulfment of HCC1954 cells; assay type: cell-based, human; details: combination with anti-Her2 antibody (trastuzumab); vs low Her2-expressing tumor cells
# [5] = test system: MCF7 (low Her2-expressing breast cancer cell line); assay: Macrophage engulfment of MCF7 cells; assay type: cell-based, human; details: monotherapy
substance,measurement,setting,value
SIRPα-Fc-CD40L: generic name of the SIRPαECD-Fc-CD40LECD chimeric protein; human or murine version according to the experiment,binding,parental CHOK1 cells,not to parental CHOK1 cells
same,phagocytic activity,[1]; combination with cetuximab,no phagocytic activity
same,phagocytic activity,[1]; monotherapy,no phagocytic activity
same,macrophage engulfment of tumor cells,[2],more effective
same,proportion of overall splenic DCs vs antibody treated groups,splenic dendritic cells,higher proportion of overall splenic DCs
same,IFNβ protein synthesis,[3]; combination with anti-CD20 antibody,significantly greater
same,RNA expression of INFα1,[3]; combination with anti-CD20 antibody vs either component alone,significantly greater
same,RNA expression of IFNβ1,[3]; combination with anti-CD20 antibody vs sum of alone treatments,greater than the sum
same,macrophage engulfment of tumor cells,[4],more effective
same,phagocytosis,[5],demonstrated monotherapy activity

# From patent publication US20210379153A1, “COMBINATION THERAPIES COMPRISING SIRP ALPHA-BASED CHIMERIC PROTEINS” (Shattuck Labs, Inc., priority 2018, published 2021)
